Measured values as given in patent publication US10526327B2, “Histone demethylase inhibitors” (CELGENE QUANTICEL RESEARCH, INC., priority 2013, dated 2020).

Tests used:
Jarid1B = target: T1, Jarid1B (Homo sapiens, UniProt Q9UGL1); experiment: Jarid1B in vitro enzyme inhibition assay (TR-FRET); type: biochemical
T1 construct: purchased BPS Bioscience or custom made by MolecularThroughput 50121
T1 sequence (Q9UGL1 2-751): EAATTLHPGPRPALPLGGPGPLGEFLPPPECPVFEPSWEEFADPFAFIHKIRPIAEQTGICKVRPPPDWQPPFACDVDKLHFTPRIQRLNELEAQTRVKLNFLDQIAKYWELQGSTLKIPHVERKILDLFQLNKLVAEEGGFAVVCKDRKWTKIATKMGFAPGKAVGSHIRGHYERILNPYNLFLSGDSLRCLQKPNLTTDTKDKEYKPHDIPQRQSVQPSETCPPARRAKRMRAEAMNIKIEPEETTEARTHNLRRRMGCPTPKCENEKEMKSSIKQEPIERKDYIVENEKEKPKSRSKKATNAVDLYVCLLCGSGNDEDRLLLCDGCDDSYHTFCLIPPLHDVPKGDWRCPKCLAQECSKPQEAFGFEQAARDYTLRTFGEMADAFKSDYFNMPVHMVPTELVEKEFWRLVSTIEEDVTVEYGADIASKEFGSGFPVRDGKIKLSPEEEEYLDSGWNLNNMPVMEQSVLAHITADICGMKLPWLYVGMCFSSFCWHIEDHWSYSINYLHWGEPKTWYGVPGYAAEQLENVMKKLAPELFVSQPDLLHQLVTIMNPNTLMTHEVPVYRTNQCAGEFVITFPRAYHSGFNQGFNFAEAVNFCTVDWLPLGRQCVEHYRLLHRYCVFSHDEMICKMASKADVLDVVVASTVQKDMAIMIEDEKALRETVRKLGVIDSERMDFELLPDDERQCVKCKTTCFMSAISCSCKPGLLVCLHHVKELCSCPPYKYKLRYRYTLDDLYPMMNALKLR
Text: (§1) This assay determines the ability of a test compound to inhibit Jarid1A, Jarid1B, and JMJD2C demethylase activity. Baculovirus expressed Jarid1A (GenBank Accession #NM_001042603, AA1-1090) was purchased from BPS Bioscience (Cat#50110). Baculovirus expressed Jarid1B (GenBank Accession #NM_006618, AA 2-751) was purchased from BPS Bioscience (Cat #50121) or custom made by MolecularThroughput. Baculovirus expressed JMJD2C (GenBank Accession #BC143571, AA 2-372) was purchased from BPS Bioscience (Cat#50105).
The ability of test compounds to inhibit the activity of Jarid1B was determined in 384-well plate format under the following reaction conditions: 0.8 nM Jarid1B, 300 nM H3K4me3-biotin labeled peptide (Anaspec cat #64357), 2 μM alpha-ketoglutaric acid in assay buffer of 50 mM HEPES, pH7.3, 0.005% Brij35, 0.5 mM TCEP, 0.2 mg/ml BSA, 50 μM sodium L-ascorbate, and 2 μM ammonium iron(II) sulfate. Reaction product was determined quantitatively by TR-FRET after the addition of detection reagent Phycolink Streptavidin-allophycocyanin (Prozyme) and Europium-anti-mono-or di-methylated histone H3 lysine 4 (H3K4me1-2) antibody (PerkinElmer) in the presence of 5 mM EDTA in LANCE detection buffer (PerkinElmer) at a final concentration of 25 nM and 1 nM, respectively.
(§2) The assay reaction was initiated by the following: 2 μl of the mixture of 900 nM H3K4me3-biotin labeled peptide and 6 μM alpha-ketoglutaric acid with 2 μl of 11-point serial diluted inhibitor in 3% DMSO was added to each well of the plate, followed by the addition of 2 μl of 2.4 nM Jarid1B to initiate the reaction. The reaction mixture was incubated at room temperature for 30 minutes, and terminated by the addition of 6 μl of 5 mM EDTA in LANCE detection buffer containing 50 nM Phycolink Streptavidin-allophycocyanin and 2 nM Europium-anti-H3K4me1-2 antibody. Plates were read by EnVisionMultilabel Reader in TR-FRET mode (excitation at 320 nm, emission at 615 nm and 665 nm) after 1 hour incubation at room temperature. A ratio was calculated (665/615) for each well and fitted to determine inhibition constant (IC50).

JMJD2C = target: T2, JMJD2C (Homo sapiens, UniProt Q9H3R0); experiment: JMJD2C in vitro enzyme inhibition assay (TR-FRET); type: biochemical
T2 construct: purchased BPS Bioscience 50105
T2 sequence (Q9H3R0 2-372): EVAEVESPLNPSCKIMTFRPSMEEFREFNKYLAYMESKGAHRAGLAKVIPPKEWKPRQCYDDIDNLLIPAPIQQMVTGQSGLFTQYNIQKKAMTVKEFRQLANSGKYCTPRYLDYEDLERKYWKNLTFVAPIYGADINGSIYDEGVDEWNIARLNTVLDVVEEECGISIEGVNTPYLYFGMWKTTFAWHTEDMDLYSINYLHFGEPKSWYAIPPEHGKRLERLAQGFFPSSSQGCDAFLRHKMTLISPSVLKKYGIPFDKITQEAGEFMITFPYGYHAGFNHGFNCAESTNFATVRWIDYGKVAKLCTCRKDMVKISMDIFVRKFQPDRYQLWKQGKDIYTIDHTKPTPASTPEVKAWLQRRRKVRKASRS
Text: as §1
The ability of test compounds to inhibit the activity of JMJD2C was determined in 384-well plate format under the following reaction conditions: 0.3 nM JMJD2C, 300 nM H3K9me3-biotin labeled peptide (Anaspec cat #64360), 2 μM alpha-ketoglutaric acid in assay buffer of 50 mM HEPES, pH7.3, 0.005% Brij35, 0.5 mM TCEP, 0.2 mg/ml BSA, 50 μM sodium L-ascorbate, and 2 μM ammonium iron(II) sulfate. Reaction product was determined quantitatively by TR-FRET after the addition of detection reagent Phycolink Streptavidin-allophycocyanin (Prozyme) and Europium-anti-di-methylated histone H3 lysine 9 (H3K9me2) antibody (PerkinElmer) in the presence of 5 mM EDTA in LANCE detection buffer (PerkinElmer) at a final concentration of 50 nM and 1 nM, respectively.
as §2, with “nM H3K9me3-biotin” for “nM H3K4me3-biotin”, “DMSO were” for “DMSO was”, “of 0.9” for “of 2.4”, “nM JMJD2C” for “nM Jarid1B”, “containing 100” for “containing 50”, “nM Europium-anti-H3K9me2” for “nM Europium-anti-H3K4me1-2”

SMILES	IC50 (Jarid1B) [nM]	IC50 (JMJD2C) [nM]
Oc1nc(Oc2cccc(F)c2F)nc2cnccc12 [Example 42, 2-(2,3-difluorophenoxy)pyrido[3,4-d]pyrimidin-4-ol]	100 to 1000	100 to 1000
Oc1nc(Oc2ccc(Cl)cc2)nc2cnccc12 [Example 49, 2-(4-chlorophenoxy)pyrido[3,4-d]pyrimidin-4-ol]	≤ 100	≤ 100
Oc1nc(OCC2CCC2)nc2cnccc12 [Example 11, 2-(cyclobutylmethoxy)-3H-pyrido[3,4-d]pyrimidin-4-one]	100 to 1000	100 to 1000
CC(C)(C)OC(=O)N1CCC(n2cc(Oc3nc(O)c4ccncc4n3)cn2)CC1 [Example 88, tert-butyl 4-[4-(4-hydroxypyrido[3,4-d]pyrimidin-2-yl)oxypyrazol-1-yl]piperidine-1-carboxylate]	≤ 100	100 to 1000
O=S(=O)(c1ccccc1)N1CCC(n2cc(Oc3nc(O)c4ccncc4n3)cn2)CC1 [Example 95, 2-[1-[1-(benzenesulfonyl)piperidin-4-yl]pyrazol-4-yl]oxypyrido[3,4-d]pyrimidin-4-ol]	≤ 100	≤ 100
CCOc1c(F)cc(Oc2nc(O)c3ccncc3n2)cc1F [Example 45, 2-(4-ethoxy-3,5-difluorophenoxy)pyrido[3,4-d]pyrimidin-4-ol]	≤ 100	100 to 1000
COc1nc(O)c2ccnc(-c3cn(C)cn3)c2n1 [Example 68, 2-methoxy-8-(1-methyl-1H-imidazol-4-yl)pyrido[3,4-d]pyrimidin-4-ol]	≤ 100	100 to 1000
CC(c1ccccc1)n1cc(Oc2nc(O)c3ccncc3n2)cn1 (stereo not shown) [Example 99]	≤ 100	100 to 1000
CCC(C)Oc1nc(O)c2ccncc2n1 (stereo not shown) [Example 9, 2-butan-2-yloxy-3H-pyrido[3,4-d]pyrimidin-4-one]	1000 to 10000	≤ 100
CCc1cccc(Oc2nc(O)c3ccncc3n2)c1 [Example 57, 2-(3-ethylphenoxy)pyrido[3,4-d]pyrimidin-4-ol]	≤ 100	≤ 100
Oc1nc(Oc2ccnc(N3CCNCC3)c2)nc2cnccc12 [Example 96, 2-(2-piperazin-1-ylpyridin-4-yl)oxypyrido[3,4-d]pyrimidin-4-ol]	≤ 100	100 to 1000
CN(C)c1ccc(Oc2nc(O)c3ccncc3n2)cc1 [Example 59, 2-[4-(dimethylamino)phenoxy]pyrido[3,4-d]pyrimidin-4-ol]	≤ 100	100 to 1000
Oc1nc(Oc2cnn(C3CCOCC3)c2)nc2cnccc12 [Example 67, 2-{[1-(tetrahydro-2H-pyran-4-yl)-1H-pyrazol-4-yl]oxy}pyrido[3,4-d]pyrimidin-4-ol]	≤ 100	100 to 1000
CC(=O)N1CCC(n2cc(Oc3nc(O)c4ccncc4n3)cn2)CC1 [Example 90, 1-[4-[4-(4-hydroxypyrido[3,4-d]pyrimidin-2-yl)oxypyrazol-1-yl]piperidin-1-yl]ethanone]	≤ 100	≤ 100
COc1nc(O)c2ccncc2n1 [Example 8, 2-methoxypyrido[3,4-d]pyrimidin-4-ol]	100 to 1000	100 to 1000
COc1ccc(Oc2nc(O)c3ccncc3n2)cc1F [Example 53, 2-(3-fluoro-4-methoxyphenoxy)pyrido[3,4-d]pyrimidin-4-ol]	≤ 100	100 to 1000
CC(C)CCn1cc(Oc2nc(O)c3ccnc(-c4cn(C)cn4)c3n2)cn1 [Example 80, 2-[1-(3-methylbutyl)pyrazol-4-yl]oxy-8-(1-methylimidazol-4-yl)pyrido[3,4-d]pyrimidin-4-ol]	≤ 100	100 to 1000
Cn1cnc(-c2nccc3c(O)nc(OCc4ccccc4)nc23)c1 [Example 101, 8-(1-methylimidazol-4-yl)-2-phenylmethoxypyrido[3,4-d]pyrimidin-4-ol]	≤ 100	100 to 1000
Cn1cnc(-c2nccc3c(O)nc(OCCO)nc23)c1 [Example 75, 2-(2-hydroxyethoxy)-8-(1-methylimidazol-4-yl)pyrido[3,4-d]pyrimidin-4-ol]	≤ 100	100 to 1000
Cn1cnc(-c2nccc3c(O)nc(Oc4cnn(C5CCOCC5)c4)nc23)c1 [Example 100, 8-(1-methylimidazol-4-yl)-2-[1-(oxan-4-yl)pyrazol-4-yl]oxypyrido[3,4-d]pyrimidin-4-ol]	≤ 100	100 to 1000
CC(C)n1cc(Oc2nc3cnccc3c(=O)[nH]2)cn1 [Example 63, 2-{[1-(propan-2-yl)-1H-pyrazol-4-yl]oxy}pyrido[3,4-d]pyrimidin-4-ol]	≤ 100	100 to 1000
COc1cccc(Oc2nc(O)c3ccncc3n2)c1 [Example 44, 2-(3-methoxyphenoxy)pyrido[3,4-d]pyrimidin-4-ol]	≤ 100	100 to 1000
Cn1cnc(-c2nccc3c(O)nc(OCCCC(F)(F)F)nc23)c1 [Example 74, 8-(1-methylimidazol-4-yl)-2-(4,4,4-trifluorobutoxy)pyrido[3,4-d]pyrimidin-4-ol]	≤ 100	100 to 1000
C=CC(=O)N1CCC(n2cc(Oc3nc(O)c4ccncc4n3)cn2)CC1 [Example 91, 1-[4-[4-(4-hydroxypyrido[3,4-d]pyrimidin-2-yl)oxypyrazol-1-yl]piperidin-1-yl]prop-2-en-1-one]	≤ 100	100 to 1000
COc1ccc(Oc2nc(O)c3ccncc3n2)cc1 [Example 48, 2-(4-methoxyphenoxy)pyrido[3,4-d]pyrimidin-4-ol]	≤ 100	≤ 100
Oc1nc(Oc2ccc(F)cc2)nc2cnccc12 [Example 47, 2-(4-fluorophenoxy)pyrido[3,4-d]pyrimidin-4-ol]	≤ 100	100 to 1000
